Read-outs that look alike come from different tables or passages of the source. One block for each molecule: values may come before it.
What was measured:
[1] = molecular target: T1, Bovine liver glutamate dehydrogenase (Bos taurus, UniProt P00366); conditions: cited from earlier work
[2] = molecular target: T1, Bovine liver glutamate dehydrogenase; experiment: Fluorescence titrations of reduced cofactor binding; conditions: NADPH, pH 8.0
[3] = molecular target: T1, Bovine liver glutamate dehydrogenase; experiment: Thermal stability by differential scanning calorimetry; assay type: binding
[4] = molecular target: T1, Bovine liver glutamate dehydrogenase; conditions: plus zinc
[5] = molecular target: T1, Bovine liver glutamate dehydrogenase; experiment: Initial rate kinetics of oxidative deamination, zinc inhibition; assay type: biochemical
[6] = molecular target: T1, Bovine liver glutamate dehydrogenase; conditions: pH 7.0, 1mM NAD^+
immobilized trypsin = experiment: Control experiments with azocasein on immobilized protease; assay type: biochemical; conditions: azocasein as substrate, zinc at the concentrations used
[7] = enzyme + 200mM norvaline, pH 7.0
[8] = enzyme + 20mM glutamate + zinc, pH 7.0
[9] = enzyme + 200mM norvaline + zinc, pH 7.0
[10] = enzyme + zinc, 0.1 M phosphate pH 7.0
[11] = control experiments, data not shown

T1 sequence (P00366 58-558): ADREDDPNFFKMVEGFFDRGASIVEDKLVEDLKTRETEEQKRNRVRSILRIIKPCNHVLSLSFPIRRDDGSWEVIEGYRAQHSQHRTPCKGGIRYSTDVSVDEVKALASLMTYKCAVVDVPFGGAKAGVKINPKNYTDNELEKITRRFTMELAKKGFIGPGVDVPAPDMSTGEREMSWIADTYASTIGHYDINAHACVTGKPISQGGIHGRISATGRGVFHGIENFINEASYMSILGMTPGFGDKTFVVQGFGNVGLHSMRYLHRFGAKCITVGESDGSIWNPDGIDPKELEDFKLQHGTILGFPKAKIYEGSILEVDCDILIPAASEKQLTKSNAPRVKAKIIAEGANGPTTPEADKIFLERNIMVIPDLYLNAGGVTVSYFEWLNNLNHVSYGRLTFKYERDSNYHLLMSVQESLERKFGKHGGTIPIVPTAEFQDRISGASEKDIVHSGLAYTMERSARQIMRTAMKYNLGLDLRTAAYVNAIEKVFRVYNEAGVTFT

SMILES: [Cl-].[Cl-].[Cl-].[Eu+3] [Eu^3+, europium (III) chloride]
Effect on the ability of zinc to inhibit the enzyme [1]: reversed
Effect on the activity of the enzyme [1]: no effect

SMILES: NC(=O)C1=CN([C@@H]2O[C@H](COP(=O)(O)OP(=O)(O)OC[C@H]3O[C@@H](n4cnc5c(N)ncnc54)[C@H](OP(=O)(O)O)[C@@H]3O)[C@@H](O)[C@H]2O)C=CC1 [NADPH, Nicotinamide Adenine Dinucleotide Phosphate]
Kd ([2]; + 100 μM zinc): 1.04 µM
Kd ([2]; +20mM glutamate + 100 μM zinc): 1.72 µM
Kd ([2]; +20mM glutamate): 2.4 µM
Kd ([2]; +200mM norvaline + 100 μM zinc): 9.27 µM
Kd ([2]; +200mM norvaline): 7.35 µM
Kd ([2]; no additions): 6.33 µM

SMILES: CC(=O)[O-].CC(=O)[O-].[Zn+2] [Zinc, zinc acetate]
Fragment 3446 (residues 114–146) Peak Height relative to ACTH standard ([4]; 5 Mins, pH 8.0): 0.52
Fragment 4089 (residues 1–35) Peak Height relative to ACTH standard ([4]; 5 Mins, pH 8.0): 0
Fragment 34,645 (residues 144–459) Peak Height relative to Native ([4]; 5 Mins, pH 8.0): 0.17
Fragment 3446 (residues 114–146) Peak Height relative to ACTH standard ([4]; 10 Mins, pH 8.0): 0.54
Fragment 4089 (residues 1–35) Peak Height relative to ACTH standard ([4]; 10 Mins, pH 8.0): 0.16
Fragment 34,645 (residues 144–459) Peak Height relative to Native ([4]; 10 Mins, pH 8.0): 0.18
Fragment 3446 (residues 114–146) Peak Height relative to ACTH standard ([4]; 15 Mins, pH 8.0): 0.75
Fragment 4089 (residues 1–35) Peak Height relative to ACTH standard ([4]; 15 Mins, pH 8.0): 0.68
Fragment 34,645 (residues 144–459) Peak Height relative to Native ([4]; 15 Mins, pH 8.0): 0.86
Fragment 3446 (residues 114–146) Peak Height relative to ACTH standard ([4]; Time = 0, pH 8.0): 0
Fragment 4089 (residues 1–35) Peak Height relative to ACTH standard ([4]; Time = 0, pH 8.0): 0
Fragment 34,645 (residues 144–459) Peak Height relative to Native ([4]; Time = 0, pH 8.0): 0
TM [3, 8]: 59.3 °C
ΔH [3, 8]: 126.4
ΔS [3, 8]: 0.381
TM [3, 9]: 68.1 °C
ΔH [3, 9]: 179.9
ΔS [3, 9]: 0.528
TM [3, 10]: 59.2 °C
ΔH [3, 10]: 128.9
ΔS [3, 10]: 0.388
Inhibition at saturating concentrations of substrates [5]: potent inhibitor
Inhibition of oxidative deamination with glutamate as substrate ([5]; pH 8): effective inhibition
Inhibition of oxidative deamination with norvaline as substrate ([5]; pH 8): no significant inhibition
Pre-Steady State Burst Amplitude ([6]; 50mM glutamate + 100μM zinc): 1.053 340F450
Pre-Steady State Burst Rate ([6]; 50mM glutamate + 100μM zinc): 0.858 340F450/sec
Steady State Rate ([6]; 50mM glutamate + 100μM zinc): 0.187 340F450/sec
Pre-Steady State Burst Amplitude ([6]; 50mM glutamate + 200μM zinc): 0.771 340F450
Pre-Steady State Burst Rate ([6]; 50mM glutamate + 200μM zinc): 0.972 340F450/sec
Steady State Rate ([6]; 50mM glutamate + 200μM zinc): 0.158 340F450/sec
Effect on the immobilized protease (immobilized trypsin): did not effect

Results, then the molecule that gave them:

TM [3, 7]: 67.8 °C
ΔH [3, 7]: 188.7
ΔS [3, 7]: 0.554
SMILES: CCC[C@H](N)C(=O)O [Norvaline, norvaline]

Effect on the activity of the enzyme [5, 11]: no effect
Effect on the inhibition by zinc [5, 11]: no effect
SMILES: [Mg+2] [magnesium]
